Source: US20220401514A1, “ANTIMICROBIAL, BACTERIOPHAGE-DERIVED POLYPEPTIDES AND THEIR USE AGAINST GRAM-NEGATIVE AND ACID-FAST BACTERIA” (CONTRAFECT CORPORATION, priority 2019, published 2022)
Where two headings read alike, the source gives them in different places.

Assays:
M. scrofulaceum = assay: 45 hr MIC against M. scrofulaceum (NTM); type: cell-based, Mycobacterium scrofulaceum; details: M. scrofulaceum Prissick and Masson ATCC 19981
S. maltophilia = assay: MIC against S. maltophilia isolates; type: cell-based, Stenotrophomonas maltophilia; details: S. maltophilia isolates (n per peptide in table)
Method in brief: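 MIC in μg/mL for Chp peptides across several S. maltophilia isolates, n denoting the number of isolates tested.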

[1] = system: Pseudomonas aeruginosa, Escherichia coli, Enterobacter cloacae, Klebsiella pneumoniae, and Acinetobacter baumannii; assay: MIC against a range of Gram-negative organisms (statements covering several species); type: cell-based; details: Tables 40-44 isolates
Method in brief: (§1)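 Medium: CAA with added human serum. Peptides tested for minimal inhibitory concentration against each strain.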

Klebsiella pneumoniae [2] = assay: microbe, parasite or virus in culture; type: cell-based; details: CAA without human serum
Escherichia coli = assay: microbe, parasite or virus in culture; type: cell-based
Method in brief: as §1

Enterobacter cloacae = assay: microbe, parasite or virus in culture; type: cell-based
Method in brief: as §1

[3] = system: carbapenem-resistant bacterial strains; assay: organism not typed; type: cell-based
Description: (§2) Determination of Minimal Inhibitory Concentrations (MIC).

[4] = Stability assessment in 100% CAA; type: in vitro ADME; design: unit not given beside the values
Experimental: Stability was assessed after incubation in 100% human serum at 37° C. after 10 minutes, 1 hour, and 2 hours.
Stability assessment was further conducted in 100% CAA and rabbit serum using the same methodology discussed above.

[5] = system: P. aeruginosa strain CFS-1292; assay: MIC in presence of divalent cations (calcium chloride, magnesium sulfate); type: cell-based, Pseudomonas aeruginosa
Experimental: Next, Chp peptides were evaluated in the presence of different divalent cations. […]; (2) in the presence of 2 mM calcium chloride alone; (3) in the presence of 1 mM magnesium sulfate alone; and (4) in the presence of both 2 mM calcium chloride and 1 mM magnesium sulfate. […]

[6] = system: P. aeruginosa strain CFS-1292; assay: MIC in presence of mouse, rat, rabbit and human serum ([…] each); type: cell-based, Pseudomonas aeruginosa; details: P. aeruginosa CFS-1292
Experimental: The activity of several Chp peptides against P. aeruginosa strain CFS-1292 in animal serum was evaluated. […] Rat, mouse, and rabbit serum were all obtained from pooled gender samples.

[7] = system: Mycobacterium tuberculosis strains
Experimental: MIC values for various Chp peptides were determined using the CLSI method for broth microdilution in 96-well microtiter format.
Next, MIC values for various Chp peptides were determined using the CLSI method above for broth microdilution in 96-well microtiter format for two different Mycobacterium tuberculosis strains. The MIC was determined as explained above for the NTM strains.

M. avium = assay: 45 hr MIC against M. avium (NTM); type: cell-based, Mycobacterium avium; details: M. avium Chester ATCC 700898
Acinetobacter baumannii = assay: microbe, parasite or virus in culture; type: cell-based
M. intracellulare = assay: 45 hr MIC against M. intracellulare (NTM); type: cell-based, Mycobacterium intracellulare; details: M. intracellulare (Cuttino and McCabe) Runyon ATCC 13950
Klebsiella pneumoniae [8] = type: cell-based
Experimental: as §2
Additional MIC testing was performed for several peptides against the ESKAPE pathogens Escherichia coli, Enterobacter cloacae, Klebsiella pneumoniae, and Acinetobacter baumannii, in CAA supplemented with human serum (Table D).

Pseudomonas aeruginosa = assay: microbe, parasite or virus in culture; type: cell-based; details: for MIC: CAA without human serum
[9] = system: carbapenem-resistant P. aeruginosa clinical isolate CFS-1292; assay: MIC by modified CLSI broth microdilution against P. aeruginosa CFS-1292 (CAA, CAA + human serum); type: cell-based, Pseudomonas aeruginosa
[10] = system: M. kansasii Hauduroy ATCC 12478; assay: 45 hr MIC against M. kansasii (NTM), Mueller Hinton broth; type: cell-based, Mycobacterium kansasii
[11] = system: P. aeruginosa strain CFS-1292; assay: MIC at pH 6, pH 7 and pH 8; type: cell-based, Pseudomonas aeruginosa
Experimental: The Chp peptides were further evaluated at varying pH levels. The MIC values were determined at pH 6, pH 7, and pH 8 for 18 different Chp peptides against P. aeruginosa strain CFS-1292. […]

[12] = E. coli isolates (n per peptide in table)
[13] = E. cloacae isolates (n per peptide in table)
[14] = A. baumannii isolates (n per peptide in table)
[15] = K. pneumoniae isolates (n per peptide in table)
[16] = P. aeruginosa isolates (n per peptide in table)

MARRYRLSRRRSRRLFSRTALRMHRRNRLRRIMRGGIRF [Chp4]
45 hr MIC (M. scrofulaceum): 2 µg/mL
MIC50 (S. maltophilia): 0.5 µg/mL
MIC100 (S. maltophilia): 2 µg/mL
MIC Range (S. maltophilia): 0.5 to 8 µg/mL
activity (good = MIC100 of ≤4) against all of P. aeruginosa, K. pneumoniae, A. baumannii, E. cloacae, and E. coli [1]: good activity
MIC (Klebsiella pneumoniae [2]; Klebsiella pneumoniae (ATCC 10031, MIC control strain), RSC 814): 4 µg/mL
MIC (Klebsiella pneumoniae [2]; Klebsiella pneumoniae (g2-3 HM35K), RSC 1138): 4 µg/mL
MIC (Klebsiella pneumoniae [2]; Klebsiella sp. (HM-44; colon, Crohn's disease), RSC 1139): 4 µg/mL
MIC (Klebsiella pneumoniae [2]; Klebsiella spp. (HM-223; gut of Crohn's disease patient), RSC 1131): 4 µg/mL
MIC (Escherichia coli; E. coli (ATCC 25922, MIC control strain), RSC 813, CAA without human serum): 2 µg/mL
MIC (Escherichia coli; E. coli (HM346, colon, Crohn's disease), RSC 1212, CAA without human serum): 4 µg/mL
MIC50 (Escherichia coli; [12]): 1 µg/mL
MIC100 (Escherichia coli; [12]): 2 µg/mL
MIC Range (Escherichia coli; [12]): 0.5 to 4 µg/mL
MIC (Escherichia coli; Escherichia coli ATCC 25922, CAA supplemented with human serum): 0.5 µg/mL
MIC50 (Enterobacter cloacae; [13]): 0.5 µg/mL
MIC100 (Enterobacter cloacae; [13]): 1 µg/mL
MIC Range (Enterobacter cloacae; [13]): 0.25 to 2 µg/mL
MIC (Enterobacter cloacae; Enterobacter cloacae (ATCC 13047, MIC control strain), RSC 1240, CAA without human serum): 4 µg/mL
MIC (Enterobacter cloacae; Enterobacter cloacae ATCC 13047, CAA supplemented with human serum): 1 µg/mL
MIC ([3]; carbapenem-resistant isolate PA19): 0.5 µg/mL
MIC ([3]; carbapenem-resistant isolate PA20): 1 µg/mL
MIC ([3]; carbapenem-resistant isolate PA21): 1 µg/mL
MIC ([3]; carbapenem-resistant isolate PA22): 1 µg/mL
MIC ([3]; carbapenem-resistant isolate PA23): 1 µg/mL
MIC ([3]; carbapenem-resistant isolate PA24): 1 µg/mL
MIC ([3]; carbapenem-resistant isolate WLC-452): 0.5 µg/mL
MIC (100% CAA) [4]: 0.25
MIC ([5]; CAA media + 1 mM MgSO4): 0.5 µg/mL
MIC ([5]; CAA media + 2 mM CaCl2): 1 µg/mL
MIC ([5]; CAA media + + 1 mM MgSO4): 0.125 µg/mL
MIC ([5]; CAA media alone): 0.5 µg/mL
MIC BALB/C Mouse Serum ([6]; BALB/C mouse serum […]): 32 µg/mL
MIC CAA ([6]; CAA): 0.5 µg/mL
MIC New Zealand White Rabbit Serum ([6]; New Zealand White rabbit serum […]): 2 µg/mL
MIC Sprague Dawley Rat Serum ([6]; Sprague Dawley rat serum […]): 2 µg/mL
MIC Human Serum ([6]; human serum […]): 0.5 µg/mL
MIC ([7]; Mycobacterium tuberculosis (Zopf) Lehmann and Neumann ATCC 25177): 16 µg/mL
MIC ([7]; Mycobacterium tuberculosis (Zopf) Lehmann and Neumann ATCC 35817): 8 µg/mL
45 hr MIC (M. avium): 1 µg/mL
MIC50 (Acinetobacter baumannii; [14]): 0.5 µg/mL
MIC100 (Acinetobacter baumannii; [14]): 1 µg/mL
MIC Range (Acinetobacter baumannii; [14]): 0.25 to 1 µg/mL
MIC (Acinetobacter baumannii; Acinetobacter baumannii (clinical isolate HSS), RSC 30, CAA without human serum): 4 µg/mL
MIC (Acinetobacter baumannii; Acinetobacter baumannii (clinical isolate HSS), RSC 32, CAA without human serum): 4 µg/mL
MIC (Acinetobacter baumannii; Acinetobacter baumannii ATCC BAA 747, CAA supplemented with human serum): 0.125 µg/mL
45 hr MIC (M. intracellulare): 1 µg/mL
MIC50 (Klebsiella pneumoniae [8]; [15]): 1 µg/mL
MIC100 (Klebsiella pneumoniae [8]; [15]): 1 µg/mL
MIC Range (Klebsiella pneumoniae [8]; [15]): 0.5 to 1 µg/mL
MIC (Klebsiella pneumoniae [8]; Klebsiella pneumoniae HM-44, CAA supplemented with human serum): 0.25 µg/mL
MIC (Pseudomonas aeruginosa; P. aeruginosa 453 (Human clinical isolate, HSS), RSC 1292): 4 µg/mL
MIC (Pseudomonas aeruginosa; P. aeruginosa (ATCC 14213, human hip wound), RSC 1111): 4 µg/mL
MIC (Pseudomonas aeruginosa; P. aeruginosa (ATCC 15152, abscess in middle ear), RSC 1110): 4 µg/mL
MIC (Pseudomonas aeruginosa; P. aeruginosa (ATCC 15692, infected wound), RSC 489): 4 µg/mL
MIC (Pseudomonas aeruginosa; P. aeruginosa (ATCC 15692, infected wound), RSC 1115): 4 µg/mL
MIC (Pseudomonas aeruginosa; P. aeruginosa (ATCC 17646, human liver abscess), RSC 1109): 4 µg/mL
MIC (Pseudomonas aeruginosa; P. aeruginosa (ATCC 19142, tracheobronchial secretion), RSC 1108): 4 µg/mL
MIC (Pseudomonas aeruginosa; P. aeruginosa (ATCC 25102, bacteriophage host), RSC 1114): 4 µg/mL
MIC (Pseudomonas aeruginosa; P. aeruginosa (ATCC 27853, MIC control strain), RSC 815): 4 µg/mL
MIC (Pseudomonas aeruginosa; P. aeruginosa (ATCC BAA-27, lab strain), RSC 1113): 4 µg/mL
MIC (Pseudomonas aeruginosa; P. aeruginosa (PAO1, alternate source, HER1018), RSC 490): 4 µg/mL
MIC50 (Pseudomonas aeruginosa; [16]): 1 µg/mL
MIC100 (Pseudomonas aeruginosa; [16]): 1 µg/mL
MIC Range (Pseudomonas aeruginosa; [16]): 0.5 to 1 µg/mL
MIC (μg/mL) against CFS-1292 in 100% CAA (1st run/2nd run) ([9]; 100% CAA, 1st run or single value): 0.5 µg/mL
MIC (μg/mL) against CFS-1292 in CAA + […] human serum ([9]; CAA + […] human serum): 0.5 µg/mL
45 hr MIC [10]: >0.125 µg/mL
MIC ([11]; CAA media (pH 7)): 0.5 µg/mL
MIC ([11]; pH 6): 0.25 µg/mL
MIC ([11]; pH 7): 0.5 µg/mL
MIC ([11]; pH 8): 1 µg/mL
